This is an account of results in patent US10179770B2, “Quinolines derivatives as novel anticancer agents” (GENOSCIENCE PHARMA, priority 2013, dated 2019).

In one assay the test system is CCRF-CEM. Put plainly: NCI-60 screen (SRB). The following applies: CCRF-CEM (Leukemia). The format is cell-based. The protocol: (§1) The human tumor cell lines of the cancer screening panel are grown in RPMI 1640 medium containing 5% fetal bovine serum and 2 mM L-glutamine. For a typical screening experiment, cells are inoculated into 96 well microtiter plates in 100 μL at plating densities ranging from 5,000 to 40,000 cells/well depending on the doubling time of individual cell lines. After cell inoculation, the microtiter plates are incubated at 37° C., 5% CO2, 95% air and 100% relative humidity for 24 h prior to addition of experimental drugs.
(§2) After 24 h, two plates of each cell line are fixed in situ with TCA, to represent a measurement of the cell population for each cell line at the time of drug addition (Tz). Experimental drug is solubilized in dimethyl sulfoxide at 400-fold the desired final maximum test concentration and stored frozen prior to use. At the time of drug addition, an aliquot of frozen concentrate is thawed and diluted to twice the desired final maximum test concentration with complete medium containing 50 μg/ml gentamicin. Additional four, 10-fold or ½ log serial dilutions are made to provide a total of five drug concentrations plus control. Aliquots of 100 μl of these different drug dilutions are added to the appropriate microtiter wells already containing 100 μl of medium, resulting in the required final drug concentrations.
(§3) Following drug addition, the plates are incubated for an additional 48 h at 37° C., 5% CO2, 95% air, and 100% relative humidity. For adherent cells, the assay is terminated by the addition of cold TCA. Cells are fixed in situ by the gentle addition of 50 μl of cold 50% (w/v) TCA (final concentration, 10% TCA) and incubated for 60 minutes at 4° C. The supernatant is discarded, and the plates are washed five times with tap water and air dried. Sulforhodamine B (SRB) solution (100 μl) at 0.4% (w/v) in 1% acetic acid is added to each well, and plates are incubated for 10 minutes at room temperature. After staining, unbound dye is removed by washing five times with 1% acetic acid and the plates are air dried. Bound stain is subsequently solubilized with 10 mM trizma base, and the absorbance is read on an automated plate reader at a wavelength of 515 nm. For suspension cells, the methodology is the same except that the assay is terminated by fixing settled cells at the bottom of the wells by gently adding 50 μl of 80% TCA (final concentration, 16% TCA). Using the seven absorbance measurements [time zero, (Tz), control growth, (C), and test growth in the presence of drug at the five concentration levels (Ti)], the percentage growth is calculated at each of the drug concentrations levels.
(§4) Percentage growth inhibition is calculated as: [(Ti−Tz)/(C−Tz)]×100 for concentrations for which Ti>/=Tz (1) [(Ti−Tz)/Tz]×100 for concentrations for which Ti<Tz (2)
(§5) Growth inhibition of 50% (GI50) is calculated from [(Ti−Tz)/(C−Tz)]×100=50 (3)
(§6) which is the drug concentration resulting in a 50% reduction in the net protein increase (as measured by SRB staining) in control cells during the drug incubation.
(§7) The drug concentration resulting in total growth inhibition (TGI) is calculated from Ti=Tz (4)
(§8) The LC50 (concentration of drug resulting in a 50% reduction in the measured protein at the end of the drug treatment as compared to that at the beginning) indicating a net loss of cells following treatment is calculated from [(Ti−Tz)/Tz]×100=−50 (5)
(§9) Values are calculated for each of these three parameters if the level of activity is reached; however, if the effect is not reached or is exceeded, the value for that parameter is expressed as greater or less than the maximum or minimum concentration tested.

The test system of a further assay is Colo205. Put plainly: NCI-60 screen (SRB). It is filed as cell-based. The following applies: COLO205 (Colon). The procedure:
as §1, §2, §3, §4, §5, §6, §7, §8, §9

The next assay relates to HOP-62. Kind of assay: NCI-60 screen (SRB). It is filed as cell-based. Conditions: HOP-62 (Non-Small Cell Lung). The protocol: as §1, §2, §3, §4, §5, §6, §7, §8, §9
The next assay concerns HS 578T. Kind of assay: NCI-60 screen (SRB). The following applies: HS 578T (Breast). It is filed as cell-based. The protocol: as §1, §2, §3, §4, §5, §6, §7, §8, §9
The next assay concerns MDA-MB-435. Put plainly: NCI-60 screen (SRB). It is filed as cell-based. Conditions: MDA-MB-435 (Melanoma). The protocol: as §1, §2, §3, §4, §5, §6, §7, §8, §9
The test system of another assay is SK-MEL-2. Put plainly: NCI-60 screen (SRB). The format is cell-based. Conditions: SK-MEL-2 (Melanoma). The protocol: as §1, §2, §3, §4, §5, §6, §7, §8, §9
For another assay, the system named is SN12C. Kind of assay: NCI-60 screen (SRB). The format is cell-based. The following applies: SN12C (Renal). The procedure:
as §1, §2, §3, §4, §5, §6, §7, §8, §9

A further assay deals with SNB-75. Kind of assay: NCI-60 screen (SRB). The format is cell-based. Conditions: SNB-75 (CNS). The protocol: as §1, §2, §3, §4, §5, §6, §7, §8, §9
A further assay deals with UACC-257. Kind of assay: NCI-60 screen (SRB). It is filed as cell-based. The following applies: UACC-257 (Melanoma). The procedure:
as §1, §2, §3, §4, §5, §6, §7, §8, §9

Another assay deals with OVCAR-3. Kind of assay: NCI-60 screen (SRB). The format is cell-based, human. The following applies: OVCAR-3 (Ovarian). The procedure: as §1, §2, §3, §4, §5, §6, §7, §8, §9
The next assay deals with PC-3. Kind of assay: NCI-60 screen (SRB). It is filed as cell-based, human. Conditions: PC-3 (Prostate). The protocol: as §1, §2, §3, §4, §5, §6, §7, §8, §9
The subject of a further assay is UACC-62. Put plainly: NCI-60 screen (SRB). The format is cell-based, human. The following applies: UACC-62 (Melanoma). The procedure: as §1, §2, §3, §4, §5, §6, §7, §8, §9
A further assay relates to MOLM-14 cell line. Kind of assay: Growth inhibition assay of MOLM-14 (CellTiter-Glo, example 63). The format is cell-based. The following applies: Homo sapiens, 48 h, method of example 63. The procedure: MOLM-14 cell line was cultured in RPMI-1640 Medium supplemented with 10% v/v Fetal Bovine Serum (FBS), 1% Penicillin-Streptomycin and maintained at 37° C. with 5% CO2. 10,000 cells were plated onto 96-well plates immediately before the assay.
Each compound was added at different concentrations (combinations of six concentrations) to each well, and cell cultures were incubated for 48 h. Vehicle (H2O) was used as a control, and all compounds were tested in a constant percentage of vehicle. Cell outgrowth was measured using the CellTiter-Glo luminescent cell viability assay as described by the manufacturer (Promega, Ref G7571 Madison, Wis., USA) using a Centro (Berthold, France) plate reader.
In each experiment, each point represents the average of triplicates in cell culture.
The experimental data are analyzed using a computer program, Graphpad Prism (GraphPad Software, Inc. La Jolla, Calif.) and EC50 values were determined as the dose of compound required to reduce absorbance values to 50% of the signal obtained for vehicle treated cell cultures.
On the technique in general: ATP-based viability assays read luminescence as a measure of living cells.

The mark [1] stands for this setting: Homo sapiens, read-out: LC50 (the source's name).

Consider `CC(C)(C)NC1CCN(c2cc(-c3ccc(Cl)cc3)nc3ccccc23)CC1.Cl.Cl` [XII-4, 2-(4-chloro-phenyl)-4-(4-N-tert-butylamino-piperidin-1-yl)quinoline dihydrochloride], for which the “Growth percent at 10 μM” value with CCRF-CEM is “+++ (cell growth 20 > % < 40)”; in the assay on Colo205, “×××× (cell growth −60 < % > −80)”; in the assay on HOP-62, “+ (cell growth 60 > % < 80)”; in the assay with HS 578T it was “+ (cell growth 60 > % < 80)”; in the assay with MDA-MB-435, “++++ (cell growth 0 > % < 20)”; in the assay with SK-MEL-2, “− (cell growth % > 80)”. Moreover, the “Growth percent at 10 μM” value with SN12C is “++ (cell growth 40 > % < 60)”; with SNB-75 it was “++ (cell growth 40 > % < 60)”; in the assay on UACC-257, “××× (cell growth −40 < % > −60)”; in the assay on OVCAR-3 it was “− (cell growth % > 80)”; in the assay on PC-3, “+++ (cell growth 20 > % < 40)”; in the assay with UACC-62, “××××× (cell growth % < −80)”.
One may read the EC50 as the midpoint of the concentration-response curve. Consider `Cc1ccc(-c2cc(N3CCC(NC(C)(C)C)CC3)c3ccccc3n2)cc1.Cl.Cl` [XIII-8, 2-(4-methyl-phenyl)-4-(4-N-tert-butylamino-piperidin-1-yl)quinoline dihydrochloride], for which, in the assay on MOLM-14 cell line, the EC50 stood at 6 µM.
A word on the TGI: it is the concentration giving total growth inhibition. Read a low TGI as greater sensitivity of the cells. As usually defined, the GI50 is the concentration giving 50% growth inhibition. High values mean less potent growth inhibition, low ones more potent growth inhibition. `CCN(CC)C1CCN(C(C)c2cc(-c3ccccc3)nc3ccccc23)CC1.Cl.Cl` (centres unmarked) [XIX-3, 2-phenyl-4-{1-[4-(N,N-diethylamino)piperidin-1-yl]-eth-1-yl}quinoline dihydrochloride]: the TGI with CCRF-CEM turned out to be 25 µM; in the assay on Colo205, 4 µM; in the assay on HOP-62 it was 22 µM; with HS 578T, 35 µM; in the assay on MDA-MB-435, 5 µM; with SK-MEL-2, 7 µM. In addition, the TGI in the assay with SN12C stood at 26 µM; in the assay on SNB-75 it was 26 µM; in the assay on UACC-257 it was 4 µM; in the assay with OVCAR-3, 28 µM. Also, the “Growth percent at 10 μM” value with CCRF-CEM is given as “++ (cell growth 40 > % < 60)”; with Colo205 it was “××× (cell growth −40 > % < −60)”; with HOP-62, “− (cell growth % > 80)”; with HS 578T, “+ (cell growth 60 > % < 80)”; in the assay on MDA-MB-435 it was “++++ (cell growth % < 20)”; with SK-MEL-2 it was “++ (cell growth 40 > % < 60)”. The “Growth percent at 10 μM” value in the assay with SN12C is listed as “+ (cell growth 60 > % < 80)”; in the assay on SNB-75 it was “+++ (cell growth 20 > % < 40)”; with UACC-257 it was “××× (cell growth −40 > % < −60)”; in the assay with OVCAR-3, “+ (cell growth 60 > % < 80)”; in the assay with PC-3, “+ (cell growth 60 > % < 80)”; in the assay on UACC-62 it was “×××× (cell growth −60 > % < −80)”. In addition, the GI50 came to 9 µM with CCRF-CEM (Homo sapiens); 2 µM in the assay with Colo205 (Homo sapiens, COLO 205); 9 µM in the assay with HOP-62 (Homo sapiens); 11 µM with HS 578T (Homo sapiens); 2 µM in the assay on MDA-MB-435 (Homo sapiens); 3 µM in the assay with SK-MEL-2 (Homo sapiens). The GI50 in the assay with SN12C (Homo sapiens) stood at 12 µM; with SNB-75 (Homo sapiens) it was 12 µM; in the assay with UACC-257 (Homo sapiens), 2 µM; in the assay with OVCAR-3 (Homo sapiens) it was 14 µM. In addition, the CC50 stood at 62 µM in the assay on CCRF-CEM (setting [1]); 7 µM with Colo205 (Homo sapiens, COLO 205, read-out: LC50 (the source's name)); 52 µM in the assay with HOP-62 (setting [1]); 14 µM in the assay on MDA-MB-435 (setting [1]); 27 µM with SK-MEL-2 (setting [1]); 55 µM in the assay on SNB-75 (setting [1]). The values for the CC50 in the assay on UACC-257 (setting [1]) and in the assay with OVCAR-3 (setting [1]) were 8 µM and 55 µM, respectively. The same compound gave an LC50 (concentration killing 50% of cells) in the assay with HS 578T (Homo sapiens) of 100 µM. The LC50 (concentration giving 50% net cell kill) in the assay with SN12C (Homo sapiens) was 26 µM. Also, in the assay with MOLM-14 cell line, the EC50 stood at 22 µM.
